Experimental findings from patent publication US9278120B2, “Inflammatory eye disorders” (Massachusetts Eye and Ear Infirmary, priority 2012, dated 2016) are described below.

A short description of assay [1]: Visual acuity in limbal stem cell insufficiency (LSCI) patients treated with topical steroid drops. Type of assay: in vivo, human. Conditions: OU. As to the method: (§1) In these experiments, the clinical charts and images of three patients diagnosed with LSCI were retrospectively reviewed. […] The patients were followed monthly until resolution. The patients were treated with topical steroid drops based on in vivo confocal microscopy findings that indicate the presence of inflammation. […] The images were quantified for dendritiform immune cell density (DC) and total counts of nerves and branches with respective density with ImageJ/Neuron J software.

Assay [2] deals with dendritic cells in the central cornea and superior limbus. The experiment in a line: In vivo confocal microscopy of dendritiform immune cell density in LSCI patients. Also noted: species or system human. Conditions: for average density of dendritic cells in the superior limbus: after treatment, pooled LSCI subjects (loteprednol etabonate or rimexolone); for average dendritic cell density in the cornea: following three months of treatment, pooled LSCI subjects (loteprednol etabonate 4 eyes, rimexolone 2 eyes), 577.4±323.8 at presentation, p=0.001. On the procedure: as §1

`CCOC(=O)O[C@]1(C(=O)OCCl)CC[C@H]2[C@@H]3CCC4=CC(=O)C=C[C@]4(C)[C@H]3[C@@H](O)C[C@@]21C` [loteprednol etabonate]: the “visual acuity after treatment” value in assay [1] (LSCI Patient 2, 0.5% QID initially, then taper for 11 months, 20/20 OD and 20/60 OS at presentation) was 20/20; in assay [1] (LSCI Patient 3, 0.5% QID initially, then taper for 4 months, 20/30 OD and 20/20 OS at presentation), 20/20. Also, in assay [2], the “average density of dendritic cells in the superior limbus” value turned out to be 238.2±158.4 cells/mm^2. In assay [2], the “average dendritic cell density in the cornea” value was 234.6±233.7 cells/mm^2.
Turning to `CCC(=O)[C@@]1(C)[C@H](C)C[C@H]2[C@@H]3CCC4=CC(=O)C=C[C@]4(C)[C@H]3[C@@H](O)C[C@@]21C` [rimexolone], the “visual acuity after treatment” value in assay [1] (LSCI Patient 1, 1% QID initially, then taper for 5 months, 20/25 OD and 20/40 OS at presentation) is reported as 20/20. Also, in assay [2], the “average density of dendritic cells in the superior limbus” value is listed as 238.2±158.4 cells/mm^2 and the “average dendritic cell density in the cornea” value was 234.6±233.7 cells/mm^2.
